Publication PMC9782211 (Microorganisms, 2022)

Columns and labels:
male Wistar rats = experiment: Modified Irwin test (neurobehavioral activity)
Description: In this test, an examination is done whether or not drugs induce behavioural and physiologically relevant effects. […] The modified Irwin test was performed under GLP conditions and was comprised of a standard observation battery of tests addressing various parameters of the central nervous, autonomic nervous, peripheral motor, and sensory systems.
The study comprised five treatment groups with six male animals each.
The following investigations were made at the following time points: • Mortality: twice daily during the observation period • Clinical observations: on the day of treatment before application • Body weight development: on the day of delivery and on the day of treatment before application • Modified Irwin test: at the time points pre-test (24 h prior to administration), 1 h, 4 h, 7 h, 24 h, 48 h, and 72 h after application.
Statistical analyses of the data were performed for each group separately. Group mean values (means) with standard deviation (SD) were calculated for body weights, each parameter of the Irwin Test, and each investigation time point.
For Irwin Test parameters, statistical differences between the positive control group and the vehicle control group and between the test item groups and the vehicle control group were evaluated by the Mann–Whitney U-test, using an MS Excel® statistics tool developed and validated in-house; p < 0.05 was accepted as the level of significance.

human PBMC cells = experiment: Bionas chip-based system, respiration rate; assay type: cell-based; settings: 24 h peptide exposure
Description: (§1) Cytotoxicity was assayed by using the chip-based Bionas system with four different cell types. These include human hepatoma cells (HepG2), human colon adenocarcinoma cells (LS-174T), human acute lymphocytic leukemic cells (Jurkat), and human peripheral blood mononuclear cells (hPBMC), provided by Cell Line Services (Piscataway, NJ, USA) and ProBioGen (Berlin, Germany). The cells were seeded on chips, with a density of 200,000 cells/chip for HepG2 and LS-174T, 300,000 cells/chip for Jurkat, and 2 million cells/chip for PBMC.
(§2) A metabolic investigation with four cells and cell lines on the effect of Pep19-2.5 on selected cell parameters was performed. In detail, see Table 1.
(§3) The analysis was performed in the Bionas® 2500 analyzing system by seeding the cells on the chips, with cell numbers of 200,000 for HepG2 cells and LS-174T cells, and 300,000 for Jurkat cells. The suspended cells were embedded on the day of the experiment in agarose and immediately put into the Bionas® 2500 analyzing system. The settling phase (‘RM’) was 5 h. The peptides were added after 5 h for 24 h, then a regeneration phase followed for 4 h (‘RM’), and in the last phase the cells were lysed with 0.2% triton in fresh medium (‘TX’). For the parameters acidification, respiration, and adhesion (impedance), the mean values from two experiments were calculated. […]

[1] = tested on: LS-174T cells (human colon adenocarcinoma cell line); experiment: Bionas chip-based system, respiration rate; assay type: cell-based; settings: 24 h peptide exposure
Description: as §1, §2, §3

N=C(N)NCCC[C@H](NC(=O)[C@H](Cc1ccc(O)cc1)NC(=O)[C@H](CCCCN)NC(=O)[C@H](CCCCN)NC(=O)[C@H](CS)NC(=O)CN)C(=O)N[C@@H](CCCNC(=N)N)C(=O)N[C@@H](Cc1ccccc1)C(=O)N[C@@H](CCCNC(=N)N)C(=O)N[C@@H](Cc1c[nH]c2ccccc12)C(=O)N[C@@H](CCCCN)C(=O)N[C@@H](Cc1ccccc1)C(=O)N[C@@H](CCCCN)C(=O)NCC(=O)N[C@@H](CCCCN)C(=O)N[C@@H](Cc1ccccc1)C(=O)N[C@@H](Cc1c[nH]c2ccccc12)C(=O)N[C@@H](Cc1ccccc1)C(=O)N[C@@H](Cc1c[nH]c2ccccc12)C(=O)NCC(N)=O [Pep19-2.5]
spontaneous locomotor activity, median score (male Wistar rats; 0.02 mg/kg b.w., 1 h, negative control 0.0, not significant): −0.5 | positional passivity, median score (male Wistar rats; 0.02 mg/kg, 1 h, saline 1.0, p < 0.05): 0.0 | hind limb tone, median score (male Wistar rats; 0.02 mg/kg, 72 h, negative control 1.0): 2.0 | spontaneous locomotor activity, median score (male Wistar rats; 0.2 mg/kg b.w., 48 and 72 h, saline −1.0, p < 0.05 at 72 h): 0.5 | spontaneous locomotor activity, median score (male Wistar rats; 0.2 mg/kg b.w., 1 h, negative control 0.0, not significant): −1.0 | head touch, median score (male Wistar rats; 0.2 mg/kg, 7 h, saline −1.0, p < 0.01): 0.0 | rearing, median score (male Wistar rats; 0.2 mg/kg, 48 h, saline −1.0, p < 0.05): 1.0 | finger approach, median score (male Wistar rats; 0.2 mg/kg, 72 h, saline 0.0, p < 0.05): 2.0 | rearing, median score (male Wistar rats; 0.2 mg/kg, 72 h, saline −1.0, p < 0.01): 1.0 | spontaneous locomotor activity, median score (male Wistar rats; 2 mg/kg b.w., 1 h, negative control 0.0, not significant): −1.0 | effect in Irwin test (male Wistar rats; high dose 2 mg/kg single i.v.): Significant differences were also observed in the high dose group (2 mg/kg), in terms of sensitivity to pinching the tail and vocalization when touched and hind limb reflex | vocalization when touched, median score (male Wistar rats; high dose 2 mg/kg, 1 and 24 h, control 0.0, p < 0.05): 1.0 | sensitivity to pinching of the tail, median score (male Wistar rats; high dose 2 mg/kg, 1 h, negative control 0.0, p < 0.01): −1.5 | sensitivity to pinching of the tail, median score (male Wistar rats; high dose 2 mg/kg, 7 h, saline 0.0, p < 0.05): −1.5 | effect in Irwin test (male Wistar rats; low dose 0.02 mg/kg single i.v.): No effect | sensitivity to pinching of the tail, median score (male Wistar rats; low dose 0.02 mg/kg, 1 h): 0.0 | effect in Irwin test (male Wistar rats; mid dose 0.2 mg/kg single i.v.): significant differences to the negative control were noted in rearing, spontaneous locomotor activity and sensitivity to pinching the tail | sensitivity to pinching of the tail, median score (male Wistar rats; mid dose 0.2 mg/kg, 1 h): −1.5 | neurobehavioral effects overall (male Wistar rats; single i.v., 0.02, 0.2 and 2 mg/kg): No relevant neurobehavioral effects | concentration above which respiration rate increased significantly (human PBMC cells): above 50 μg/mL | concentration above which toxic effects are observed (respiration rate) [1]: above 20 μg/mL
